According to patent US20100152154A1, “NOVEL PLATINUM COMPOUNDS FOR TREATING CANCER” (priority 2008, published 2010):

Legend:
Format in all cases: cell-based, human
[1] = tested on: NCI-H460 cells; assay: In vitro IC50 by MTS assay, NCI-H460 NSCLC cells; settings: NCI-H460, 48 hr incubation, MTS assay (490 nm)
Experimental: (§1) To Determine the In Vitro IC50 Values on Ten Human Cancer Cell Lines
(§2) HepG2 and PLC/PRF/5 cells are cultured in DMEM medium. Hep3B cells are cultured in MEM medium. NCI-H460 and 786-0 cells are cultured in RPMI 1640 medium. Caki-1, HCT-116, and SK-OV-3 cells are cultured in McCoy's 5A medium. MDA-MB-231 cells are cultured in L15 medium. All cells are cultured in corresponding media supplemented with 10% FBS, at 37° C., 5% CO2, and 95% humidity. All media are purchased from GIBCO.
(§3) CellTiter 96® Aqueous MTS reagent powder (Cat. No. G1112, Promega) Phenazine methosulfate (PMS) (Cat. No. P9625, Sigma)
(§4) Cells are harvested during the logarithmic growth period and counted with hemocytometer. Add 90 μl cell suspensions to 96-well plates (triplicates for each cell concentration), the final cell densities are 2×10^4, 1×10^4, or 5×10^3 cells/well. Prepare a series of drug concentrations for each of JP0916 and cisplatin and dispense 10 μl drug solution in each well (triplicate for each drug concentration). Incubate the plate for 48 hr then measure by MTS assay (490 nm).

[2] = tested on: PC/PRF/5 cells; assay: In vitro IC50 by MTS assay, PC/PRF/5 liver cancer cells; settings: PC/PRF/5, 48 hr incubation, MTS assay (490 nm)
Experimental: as §1, §2, §3, §4

[3] = tested on: Caki-1 cells; assay: In vitro IC50 by MTS assay, Caki-1 kidney cancer cells; settings: Caki-1, 48 hr incubation, MTS assay (490 nm)
Experimental: as §1, §2, §3, §4

[4] = tested on: Hep3B cells; assay: In vitro IC50 by MTS assay, Hep3B liver cancer cells; settings: 48 hr incubation, MTS assay (490 nm)
Experimental: as §1, §2, §3, §4

[5] = tested on: HCT-116 cells; assay: In vitro IC50 by MTS assay, HCT-116 colon cancer cells; settings: HCT-116, 48 hr incubation, MTS assay (490 nm)
Experimental: as §1, §2, §3, §4

[6] = tested on: MDA-MB-231 cells; assay: In vitro IC50 by MTS assay, MDA-MB-231 breast cancer cells; settings: MDA-MB-231, 48 hr incubation, MTS assay (490 nm)
Experimental: as §1, §2, §3, §4

[7] = tested on: SK-OV-3 cells; assay: In vitro IC50 by MTS assay, SK-OV-3 ovarian cancer cells; settings: SK-OV-3, 48 hr incubation, MTS assay (490 nm)
Experimental: as §1, §2, §3, §4

[8] = tested on: HepG2 cells; assay: In vitro IC50 by MTS assay, HepG2 liver cancer cells; settings: HepG2, 48 hr incubation, MTS assay (490 nm)
Experimental: as §1, §2, §3, §4

[9] = tested on: 786-0 cells; assay: In vitro IC50 by MTS assay, 786-0 kidney cancer cells; settings: 786-0, 48 hr incubation, MTS assay (490 nm)
Experimental: as §1, §2, §3, §4

cis-diamminedichloroplatinum(II) [Cisplatin]
IC50 [1]: 8.56 µM
IC50 [2]: 21.8 µM
IC50 [3]: 10.5 µM
IC50 [4]: 3.08 µM
IC50 [5]: 10.6 µM
IC50 [6]: 53.2 µM
IC50 [7]: 21.6 µM
IC50 [8]: 25.6 µM
IC50 [9]: 3.54 µM
